Experimental data as given in patent US6063782A, “Pyrrolopyridazine derivatives” (Sankyo Company, Limited, priority 1994, dated 2000).
Where a name gives a salt, the structure may show the parent alone.

Columns and labels:
[1] = system: Helicobacter pylori strains 9470, 9472 and 9474; assay: Antibacterial activity against Helicobacter pylori; type: cell-based; settings: strains 9470, 9472 and 9474, 37° C., 3 days, slightly aerobic; result given in words only
Method: Antibacterial activity against Helicobacter pylori The antibacterial activity of the compounds of the present invention were evaluated by measuring the minimum inhibitory concentration values (MIC) of the present compounds against Helicobacter pylori strains 9470, 9472 and 9474. These strains of Helicobacter pylori were incubated for 4 days on a plate medium. The medium was prepared by dissolving brain heart infusion agar (Product of DIFCO) in a defined amount of distilled water, by sterilization in an autoclave, injecting horse blood (Product of Nihon Seibutsu Zairyo Co.) into each plate for the medium to contain 7% of the blood and by solidifying. Under slightly aerobic conditions, Helicobacter pylori cultivated at 37° C. for 4 days was suspended in a physiological saline solution for its inocular size to be about 10^8 CFU/ml. The suspension was diluted 100 times, and about 10 μl of the diluted suspension was inoculated on a medium for MIC determination. The medium for MIC determination used had the same compounds as those for preculture. […] In a similar way to the preculture, Helicobacter pylori was cultivated at 37° C. for 3 days under slightly aerobic conditions. […] The minimum concentration which gave no bacterial growth was regarded as MIC of the compound of the present invention.

[2] = target: proton.potassium-adenosine triphosphatase (H+.K+-ATPase) (Sus scrofa, UniProt P19156); assay: Proton.potassium-adenosine triphosphatase (H+.K+-ATPase) inhibition test; type: biochemical; settings: microsomal fraction of porcine gastric mucosa, pH=6.85, 37° C.; result given in words only
Chain of proton.potassium-adenosine triphosphatase (H+.K+-ATPase) (P19156 whole entry): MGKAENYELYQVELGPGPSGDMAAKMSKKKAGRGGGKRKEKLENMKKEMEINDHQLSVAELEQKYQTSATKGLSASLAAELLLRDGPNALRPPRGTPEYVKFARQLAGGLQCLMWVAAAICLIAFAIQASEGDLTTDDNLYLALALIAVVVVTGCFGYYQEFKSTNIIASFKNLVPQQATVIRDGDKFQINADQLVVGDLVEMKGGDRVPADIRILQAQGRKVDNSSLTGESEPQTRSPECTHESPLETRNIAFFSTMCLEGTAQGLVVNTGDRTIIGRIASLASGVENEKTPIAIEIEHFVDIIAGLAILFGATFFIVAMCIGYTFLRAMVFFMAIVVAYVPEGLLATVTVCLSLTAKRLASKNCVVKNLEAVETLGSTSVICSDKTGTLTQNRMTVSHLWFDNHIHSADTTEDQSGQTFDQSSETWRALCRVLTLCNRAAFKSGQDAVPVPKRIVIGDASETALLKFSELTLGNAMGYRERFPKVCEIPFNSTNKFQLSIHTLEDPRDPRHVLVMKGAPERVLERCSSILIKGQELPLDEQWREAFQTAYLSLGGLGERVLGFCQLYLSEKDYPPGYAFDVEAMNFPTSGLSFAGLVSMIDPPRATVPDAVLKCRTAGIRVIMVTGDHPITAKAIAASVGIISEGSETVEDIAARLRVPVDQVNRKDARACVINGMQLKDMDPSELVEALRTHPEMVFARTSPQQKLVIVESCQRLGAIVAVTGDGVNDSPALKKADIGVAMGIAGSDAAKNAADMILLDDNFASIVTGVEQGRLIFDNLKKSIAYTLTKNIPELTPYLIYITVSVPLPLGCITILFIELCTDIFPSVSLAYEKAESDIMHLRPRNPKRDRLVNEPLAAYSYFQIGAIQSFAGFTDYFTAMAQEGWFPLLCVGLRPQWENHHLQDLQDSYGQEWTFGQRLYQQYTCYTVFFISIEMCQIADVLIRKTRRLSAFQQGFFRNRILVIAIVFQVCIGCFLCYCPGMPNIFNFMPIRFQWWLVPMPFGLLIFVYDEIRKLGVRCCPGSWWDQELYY
Chain of proton.potassium-adenosine triphosphatase (H+.K+-ATPase) (P18434 whole entry partner): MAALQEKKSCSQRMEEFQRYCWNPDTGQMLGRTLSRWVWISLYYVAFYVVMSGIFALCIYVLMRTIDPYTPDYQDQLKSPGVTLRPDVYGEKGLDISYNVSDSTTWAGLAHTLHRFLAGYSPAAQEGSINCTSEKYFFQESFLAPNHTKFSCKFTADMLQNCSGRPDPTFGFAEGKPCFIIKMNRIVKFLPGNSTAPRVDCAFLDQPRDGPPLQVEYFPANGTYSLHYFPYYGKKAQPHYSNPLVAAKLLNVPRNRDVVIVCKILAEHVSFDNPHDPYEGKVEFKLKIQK
Method: Proton.potassium-adenosine triphosphatase (H^+.K^+ -ATPase) activation test
According to the method reported by Sachs et al. [J. Biol. Chem., 251, 7690 (1976)], a microsomal fraction obtained from homogenized fresh porcine gastric mucosa by density gradient ultracentrifugation was used as the proton.potassium-adenosine triphosphatase preparation, 10 μl of a solution of a test compound in dimethylsulfoxide were added to 0.75 ml of 70 mM tris-HCl buffer solution (magnesium chloride 5 mM, potassium chloride 20 mM and pH=6.85) containing from 30 to 80 μg/ml (in terms of protein concentration) of the enzyme preparation and the mixture was incubated for 45 minutes at 37° C. with shaking at 200 times per minute. The enzyme reaction was initiated by adding 0.25 ml of 8 mM disodium adenosine triphosphate solution. After 20 minutes of the reaction time, the reaction was stopped by adding 1 ml of a 10k trichloroacetic acid-active carbon (100 mg) solution. The reaction solution was centrifuged (4° C., 3000 rpm, 15 minutes) and the inorganic phosphate in the supernatant prepared from adenosine triphosphate by hydrolysis was measured by colorimetry, according to the method of Yoda and Hokin [Biochem. Biophys. Res. Commun., 40, 880 (1970)]. In a similar manner, the amount of inorganic phosphate was measured in a reaction solution in the absence of potassium chloride. From the difference between the phosphate amounts in the presence and absence of potassium chloride, the proton-potassium-adenosine triphosphatase activity was calculated. Based on the activity value in the control and the values in the test compound at the various concentrations tested, the inhibiting rates (%) and then the 50? inhibiting concentrations (IC50) to proton.potassium-adenosine triphosphatase activity were obtained.

[3] = system: gastric acid secretion; assay: Gastric acid secretion activity test using pyloric ligation in rats (Shay rat method); type: in vivo; settings: male SD rats, 20 mg/kg injected into the duodenal region, 4 hours, result given in words only
Method: Gastric acid secretion activity test using pyloric ligation in rats (Shay rat method)
Pyloric ligation was conducted based on the method of Shay et al. [Gastroenterology, 5, 43 (1945)]. Male rats of SD strain were fasted for 24 hours; their abdomens were sectioned during anesthesia under ether. The duodenal and pyloric regions were exposed and the latter was ligated. A solution of a test compound (10 mg/ml) prepared by use of 1.5w parts of dimethylacetamide, 68.5% parts of polyethyleneglycol (PEG-400) and 30% parts of physiological saline solution, was injected into the duodenal region for the dose to be 20 mg/kg by use of a 1-ml syringe and an injection needle (26G). After injection of the test compound, the abdominal region was sutured. The animals were allowed to a stand for 4 hours without feeding food and water and then sacrified with carbon dioxide gas. The stomach was excised and gastric juice was gathered. The gastric juice sample was centrifuged (4° C., 2500 rpm, 15 minutes). The amount of the supernatant was measured to be as the gastric secretion. The acidity of the gastric juice was determined by the amount (ml) of 0.01 N sodium hydroxide solution required for titration of 0.1 ml of the supernatant to pH 7.0 by use of-an auto-titrating apparatus. The value of gastric acid secretion was calculated from the value of gastric secretion and the acidity of gastric juice. The inhibiting rate was obtained from the values of gastric acid secretion of the control group and of the administered group.

| Compound | minimum inhibitory concentration (MIC) against Helicobacter pylori [1] | inhibiting concentrations (IC50) to proton.potassium-adenosine triphosphatase activity [2] | inhibiting rate of gastric acid secretion [3] |
| --- | --- | --- | --- |
| CC=CCn1c(C)c(C)c2cnnc(OCc3ccc(Cl)cc3Cl)c21 [Example 21, 1-(2-Butenyl)-7-(2,4-dichlorobenzyloxy)-2,3-dimethylpyrrolo[2,3-d]pyridazine] | excellent antibacterial activity | excellent activity |  |
| Cc1c(C)n(C2CC2)c2c(OCc3ccccc3)nncc12 [Example 16, 7-Benzyloxy-1-cyclopropyl-2,3-dimethylpyrrolo[2,3-d]pyridazine] | excellent antibacterial activity |  | excellent activity |
| CC=CCn1c(C)c(C)c2c[n+]([O-])nc(OCc3ccc(F)cc3F)c21 [Example 76, 1-(2-Butenyl)--7-(2,4-difluorobenzyloxy)-2,3-dimethylpyrrolo[2,3-d]pyridazine-5-oxide] | excellent antibacterial activity | excellent activity |  |
| Cc1c(C)n(CC2CC2)c2c(OCc3ccccc3)nncc12 [Example 4, 7-Benzyloxy-1-cyclopropylmethyl-2,3-dimethylpyrrolo[2,3-d]pyridazine] | excellent antibacterial activity | excellent activity |  |
| C=C(C)Cn1c(C)c(C)c2cnnc(OCc3ccccc3)c21 [Example 14, 7-Benzyloxy-2,3-dimethyl-1-(2-methyl-2-propenyl)-ovrrolo[2,3-d]pyridazine] | excellent antibacterial activity |  | excellent activity |
| CC=CCn1c(C)c(C)c2cnnc(OCc3c(Cl)cccc3Cl)c21 [Example 49, 1-(2-Butenyl)-7-(2,6-dichlorobenzyloxy)-2,3-dimethylpyrrolo[2,3-d]pyridazine] | excellent antibacterial activity | excellent activity |  |

Continued, in another order:

| minimum inhibitory concentration (MIC) against Helicobacter pylori [1] | inhibiting concentrations (IC50) to proton.potassium-adenosine triphosphatase activity [2] | Compound | inhibiting rate of gastric acid secretion [3] |
| --- | --- | --- | --- |
|  | excellent activity | C/C=C/Cn1c(C)c(C)c2cnnc(OCc3ccc(F)cc3)c21 [Example 74, 1-(2-Butenyl)-7-(4-fluorobenzyloxy)-2,3-dimethylpyrrolo[2,3-d]pyridazine hydrochloride] |  |
| excellent antibacterial activity |  | CC=CCn1c(C)c(C)c2cnnc(OCc3ccccc3)c21 [Example 5, 7-Benzyloxy-1-(2-butenyl)-2,3-dimethylpyrrolo[2,3-d]pyridazine] | excellent activity |
| excellent antibacterial activity | excellent activity | CC=CCn1c(C)c(C)c2c[n+]([O-])nc(OCc3ccc(F)cc3)c21 [Example 75, 1-(2-Butenyl)-7-(4-fluorobenzyloxy)-2,3-dimethylpyrrolo[2,3-d]pyridazine-5-oxide] |  |
| excellent antibacterial activity | excellent activity | Cc1c(C)n(C[C@@H]2C[C@H]2C)c2c(OCc3ccc(F)cc3)nncc12 (relative stereo) [Example 57, 7-(4-Fluorobenzyloxy)-2,3-dimethyl-1-(2-methylcyclopropylmethyl)pyrrolo[2,3-d]pyridazine] | excellent activity |
| excellent antibacterial activity |  | C=CCn1c(C)c(C)c2cnnc(OCc3ccc(Cl)cc3)c21 [Example 12, 7-(4-Chlorobenzyloxy)-2,3-dimethyl-1-(2-propenyl)povrrolo[2,3-d]pyridazine] | excellent activity |
|  | excellent activity | Cc1c(C)n(CC2CC2)c2c(OCc3ccc(F)cc3)nncc12 [Example 35, 1-Cyclopropylmethyl-7-(4-fluorobenzyloxy)-2,3-dimethylpyrrolo[2,3-d]pyridazine] | excellent activity |
